Data as given in ChEMBL document CHEMBL5634076, “Optimization of pyridylpiperazine-based inhibitors of the Escherichia coli AcrAB-TolC efflux pump” (Eur J Med Chem, 2023).
Values after ≈ are worked out from the molar mass of the structure shown.

How the values were obtained:
[1] = Stability in CD-1 mouse liver microsomes assessed as half life at 1 uM measured up to 40 mins by LC-MS/MS analysis; type: ADME, Microsome
[2] = Stability in mouse plasma assessed as half life at 10 uM measured up to 360 mins by LC-MS/MS analysis; type: ADME, cell-free
[3] = Stability in CD-1 mouse liver microsomes assessed as intrinsic clearance at 1 uM measured up to 40 mins by LC-MS/MS analysis; type: ADME, Microsome; conditions: read-out: CLH
Escherichia coli [4] = experiment: Antibacterial activity against Escherichia coli BW25113 assessed as reduction in bacterial growth incubated for 20 hrs by resazurin microtitre assay; type: functional
[5] = molecular target: T1, Multidrug efflux pump subunit AcrB (Escherichia coli (strain K12)) (UniProt P31224); experiment: Inhibition of AcrB in Escherichia coli BW25113 assessed as potentiation of pyridomycin-induced antibacterial activity incubated for 5 hrs by resazurin reduction assay
T1 sequence (whole entry): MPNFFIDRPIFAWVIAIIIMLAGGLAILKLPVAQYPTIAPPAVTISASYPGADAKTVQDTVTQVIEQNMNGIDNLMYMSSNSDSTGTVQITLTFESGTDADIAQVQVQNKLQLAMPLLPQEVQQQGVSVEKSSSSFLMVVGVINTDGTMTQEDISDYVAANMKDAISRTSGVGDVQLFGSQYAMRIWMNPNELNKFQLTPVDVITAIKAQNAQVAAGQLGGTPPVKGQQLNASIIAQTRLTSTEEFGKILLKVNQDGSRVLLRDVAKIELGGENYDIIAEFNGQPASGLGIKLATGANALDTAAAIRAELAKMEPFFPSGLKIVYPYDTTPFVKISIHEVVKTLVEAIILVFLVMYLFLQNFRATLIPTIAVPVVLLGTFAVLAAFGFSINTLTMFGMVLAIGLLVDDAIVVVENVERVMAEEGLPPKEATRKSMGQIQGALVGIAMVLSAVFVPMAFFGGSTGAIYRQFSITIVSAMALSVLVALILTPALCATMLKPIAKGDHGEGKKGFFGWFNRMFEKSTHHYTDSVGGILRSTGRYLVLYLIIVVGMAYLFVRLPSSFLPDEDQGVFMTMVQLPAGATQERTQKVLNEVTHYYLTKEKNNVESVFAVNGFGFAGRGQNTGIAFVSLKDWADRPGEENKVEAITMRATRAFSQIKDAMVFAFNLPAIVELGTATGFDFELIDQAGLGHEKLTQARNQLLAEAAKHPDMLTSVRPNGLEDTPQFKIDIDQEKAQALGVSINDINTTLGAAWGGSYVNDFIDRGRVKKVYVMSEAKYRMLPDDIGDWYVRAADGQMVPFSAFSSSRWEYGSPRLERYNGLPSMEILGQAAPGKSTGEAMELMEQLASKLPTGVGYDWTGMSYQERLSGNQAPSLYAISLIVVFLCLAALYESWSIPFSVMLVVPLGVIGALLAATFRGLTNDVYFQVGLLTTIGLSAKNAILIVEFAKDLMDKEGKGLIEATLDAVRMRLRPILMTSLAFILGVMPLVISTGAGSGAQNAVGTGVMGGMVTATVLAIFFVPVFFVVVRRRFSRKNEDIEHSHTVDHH

[6] = Solubility of compound in PBS at pH 7.4 incubated for 24 hrs by LC-MS/MS analysis; type: physicochemical
[7] = molecular target: T1, Multidrug efflux pump subunit AcrB (Escherichia coli (strain K12)); experiment: Inhibition of AcrB in Escherichia coli BW25113 assessed as potentiation of pyridomycin-induced antibacterial activity incubated for 20 hrs by resazurin microtitre assay
Escherichia coli [8] = experiment: Selectivity ratio of EC90 for inhibition of AcrB Asp951Asn mutant in Escherichia coli BW25113 to inhibition of AcrB in Escherichia coli BW25113 incubated for 20 hrs by resazurin microtitre assay
Escherichia coli [9] = experiment: Inhibition of AcrB Glu947Gln mutant in Escherichia coli BW25113 assessed as potentiation of pyridomycin-induced antibacterial activity incubated for 20 hrs by resazurin microtitre assay
Escherichia coli [10] = experiment: Selectivity ratio of EC90 for inhibition of AcrB Glu947Gln mutant in Escherichia coli BW25113 to inhibition of AcrB in Escherichia coli BW25113 incubated for 20 hrs by resazurin microtitre assay
Escherichia coli [11] = experiment: Inhibition of AcrB Asp951Asn mutant in Escherichia coli BW25113 assessed as potentiation of pyridomycin-induced antibacterial activity incubated for 20 hrs by resazurin microtitre assay
[12] = molecular target: T1, Multidrug efflux pump subunit AcrB (Escherichia coli (strain K12)); experiment: Potency index, ratio of BDM73185 EC90 to test compound EC90 for inhibition of AcrAB-TolC in Escherichia coli BW25113
Escherichia coli [13] = experiment: Antibacterial activity against Escherichia coli BW25113 assessed as reduction in bacterial growth incubated up to 18 hrs by resazurin microtitre assay; type: functional

Row | SMILES | MIC (Escherichia coli [4]) | EC90 [7] | also measured
1 | Clc1cc(I)cnc1N1CCNCC1 | > 250 µM |  | half-life at 1 µM [1]: 9 min; half-life at 10 µM [2]: > 360 min; microsomal CLint at 1 µM [3]: 241 µL/min/mg; EC90 [5]: 12 µM; solubility at 24 h [6]: > 200 µM
2 | NCCNc1ncc(C(F)(F)F)cc1Cl | > 250 µM | > 500 µM | 
3 | NCCc1ccc(C(=O)Nc2cnc(N3CCNCC3)c(Cl)c2)cc1 | > 250 µM | 47 µM | 
4 | NCc1nc(-c2cnc(N3CCNCC3)c(Cl)c2)no1 | > 250 µM | 81 µM | Ratio (Escherichia coli [8]): 3; EC90 (Escherichia coli [9]): 250 µM; Ratio (Escherichia coli [10]): 3; EC90 (Escherichia coli [11]): 250 µM
5 | FC(F)(F)c1cc(I)cnc1N1CCNCC1 | > 250 µM | 94 µM | 
6 | CNC(=O)c1cnc(N2CCNCC2)c(Cl)c1 | > 250 µM | > 250 µM | 
7 | O=C(OCCc1ccccc1)c1cnc(N2CCNCC2)c(Cl)c1 | > 250 µM | 62 µM | 
8 | FC(F)(F)c1cnc(N2CCNCC2)c(Br)c1 | > 250 µM | 16 µM | 
9 | FC(F)(F)c1cnc(N2CCCNCC2)c(Cl)c1 | > 250 µM | > 500 µM | 
10 | NCCc1ccc(OC(=O)c2cnc(N3CCNCC3)c(Cl)c2)cc1 | > 250 µM | 3 µM | Ratio (Escherichia coli [8]): 8; EC90 (Escherichia coli [9]): 8 µM; Ratio (Escherichia coli [10]): 3; EC90 (Escherichia coli [11]): 23 µM
11 | NCCCc1nc(-c2cnc(N3CCNCC3)c(Cl)c2)no1 | > 250 µM | 21 µM | Ratio (Escherichia coli [8]): > 12; EC90 (Escherichia coli [9]): > 250 µM; Ratio (Escherichia coli [10]): > 12; EC90 (Escherichia coli [11]): > 250 µM
12 | C[C@@H]1CNCCN1c1ncc(C(F)(F)F)cc1Cl | > 250 µM | > 500 µM | 
13 | C[C@@H]1CN(c2ncc(C(F)(F)F)cc2Cl)C[C@H](C)N1 | > 250 µM | > 500 µM | 
14 | O=C1CN(c2ncc(C(F)(F)F)cc2Cl)CCN1 | > 250 µM | > 500 µM | 
15 | Cc1nc(-c2cnc(N3CCNCC3)c(Cl)c2)no1 | > 250 µM | 78 µM | 
16 | Cc1onc(-c2ccccc2)c1C(=O)N[C@@H]1C(=O)N2[C@@H]1SC(C)(C)[C@@H]2C(=O)O [OXACILLIN] |  |  | MIC95 (Escherichia coli [4]): > 128 µg/mL
17 | NCc1cccc(COc2cnc(N3CCNCC3)c(Cl)c2)c1 | > 250 µM | 10 µM | Ratio (Escherichia coli [8]): 25; EC90 (Escherichia coli [9]): > 250 µM; Ratio (Escherichia coli [10]): > 25; EC90 (Escherichia coli [11]): 250 µM
18 | Cc1nc(-c2cnc(N3CCNCC3)c(Cl)c2)co1 | > 250 µM | > 250 µM | 
19 | O=C(Oc1ccccc1)c1cnc(N2CCNCC2)c(Cl)c1 | > 250 µM | 23 µM | 
20 | C[C@H]1CNCCN1c1ncc(C(F)(F)F)cc1Cl | > 250 µM | > 500 µM | 
21 | O=C(OCCCc1ccccc1)c1cnc(N2CCNCC2)c(Cl)c1 | 250 µM (≈ 90 µg/mL) | 250 µM | 
22 | NCc1cccc(NC(=O)c2cnc(N3CCNCC3)c(Cl)c2)c1 | > 250 µM | 156 µM | 
23 | O=C(N[C@H](CO)[C@H](O)c1ccc([N+](=O)[O-])cc1)C(Cl)Cl [CHLORAMPHENICOL] |  |  | MIC95 (Escherichia coli [4]): 8 µg/mL (≈ 24.8 µM)
24 | NCc1cccc(OCc2cnc(N3CCNCC3)c(Cl)c2)c1 | > 250 µM | 23 µM | Ratio (Escherichia coli [8]): > 11; EC90 (Escherichia coli [9]): > 250 µM; Ratio (Escherichia coli [10]): > 11; EC90 (Escherichia coli [11]): > 250 µM
25 | NCCc1ccc(NC(=O)c2cnc(N3CCNCC3)c(Cl)c2)cc1 | > 250 µM | 187 µM | 

Row | SMILES | MIC (Escherichia coli [4]) | EC90 [7] | also measured
26 | Cc1nc(-c2cnc(N3CCNCC3)c(Cl)c2)cs1 | > 250 µM | 187 µM | 
27 | O=C(O)c1cnc(N2CCNCC2)c(Cl)c1 | > 250 µM |  | 
28 | COC(=O)c1cnc(N2CCNCC2)c(Cl)c1 | > 250 µM | 20 µM | Ratio [12]: 3
29 | O=C(O)c1cn(C2CC2)c2cc(N3CCNCC3)c(F)cc2c1=O [CIPROFLOXACIN] |  |  | MIC95 (Escherichia coli [4]): 0.01 µg/mL (≈ 0.0302 µM)
30 | O=C(Oc1cccc(CO)c1)c1cnc(N2CCNCC2)c(Cl)c1 | > 250 µM | 26 µM | Ratio (Escherichia coli [8]): 2.4; EC90 (Escherichia coli [9]): 62 µM; Ratio (Escherichia coli [10]): 2.4; EC90 (Escherichia coli [11]): 62 µM
31 | Cc1nnc(-c2cnc(N3CCNCC3)c(Cl)c2)o1 | > 250 µM | 187 µM | 
32 | FC(F)(F)c1cnc(C2=CCNCC2)c(Cl)c1 | > 250 µM | > 250 µM | 
33 | CS(=O)(=O)Nc1cnc(N2CCNCC2)c(Cl)c1 | > 250 µM | > 250 µM | 
34 | FC(F)(F)c1ccc(N2CCNCC2)nc1 | > 250 µM | > 500 µM | 
35 | O=C(CBr)c1cnc(N2CCN(C(=O)OCC(Cl)(Cl)Cl)CC2)c(Cl)c1 | > 250 µM |  | 
36 | CC(=O)O[C@H]1C[C@@]2(C)[C@@H](C[C@@H](O)[C@H]3[C@@]4(C)CC[C@@H](O)[C@@H](C)[C@@H]4CC[C@@]32C)/C1=C(\CCC=C(C)C)C(=O)O [FUSIDIC ACID] |  |  | MIC95 (Escherichia coli [4]): > 128 µg/mL
37 | CC(C)(C)OC(=O)N1CCN(c2ncc(/C(N)=N/O)cc2Cl)CC1 | > 250 µM |  | 
38 | CCN1CCN(C(=O)N[C@@H](C(=O)N[C@@H]2C(=O)N3[C@@H]2SC(C)(C)[C@@H]3C(=O)O)c2ccccc2)C(=O)C1=O [PIPERACILLIN] |  |  | MIC95 (Escherichia coli [13]): 4 µg/mL (≈ 7.73 µM)
39 | CC(=O)Nc1cnc(N2CCNCC2)c(Cl)c1 | > 250 µM | 187 µM | 
40 | CCOC(=O)c1cnc(N2CCNCC2)c(Cl)c1 | > 250 µM | 12 µM | Ratio [12]: 3
41 | CC[C@H]1OC(=O)[C@H](C)[C@@H](O[C@H]2C[C@@](C)(OC)[C@@H](O)[C@H](C)O2)[C@H](C)[C@@H](O[C@@H]2O[C@H](C)C[C@H](N(C)C)[C@H]2O)[C@](C)(O)C[C@@H](C)C(=O)[C@H](C)[C@@H](O)[C@]1(C)O [ERYTHROMYCIN] |  |  | MIC95 (Escherichia coli [13]): 128 µg/mL (≈ 174 µM)
42 | CO[C@@H]1[C@@H](OC(N)=O)[C@@H](O)[C@H](Oc2ccc3c(O)c(NC(=O)c4ccc(O)c(CC=C(C)C)c4)c(=O)oc3c2C)OC1(C)C [NOVOBIOCIN] |  |  | MIC95 (Escherichia coli [4]): 80 µg/mL (≈ 131 µM)
43 | CC(=O)NC[C@H]1CN(c2ccc(N3CCOCC3)c(F)c2)C(=O)O1 [LINEZOLID] |  |  | MIC95 (Escherichia coli [4]): > 128 µg/mL
44 | CC(C)(C)OC(=O)N1CCN(c2ncc(N)cc2Cl)CC1 | > 250 µM |  | 
45 | OCc1cc(C(F)(F)F)cnc1N1CCNCC1 | > 250 µM | > 500 µM | 
46 | NCCOC(=O)c1cnc(N2CCNCC2)c(Cl)c1 | > 250 µM | > 250 µM | 
47 | NC1CCN(c2ncc(C(F)(F)F)cc2Cl)CC1 | > 250 µM | 500 µM | 
48 | O=C(OCc1ccccc1)c1cnc(N2CCNCC2)c(Cl)c1 | > 250 µM | 156 µM | 
49 | OCc1cnc(N2CCNCC2)c(Cl)c1 | > 250 µM | > 250 µM | 
